How the values were obtained:
RA = RA Phase II studies in humans; cited from earlier work
murine model of RA = conditions: cited from earlier work
SYK = biological target: T1, SYK (Homo sapiens, UniProt P43405); assay: SYK Flash Plate Assay (enzyme assay); assay type: biochemical
T1 construct: 2.5 nM SYK, 400 nM Biotin-Aha-Aha-KEDPDYEWPSAKK and 10 μM ATP

IC50 (SYK) [µM]	Compound	further results
	COc1cc(Nc2ncc(F)c(Nc3ccc4c(n3)NC(=O)C(C)(C)O4)n2)cc(OC)c1OC [Compound R406]	efficacy (ACR scores) (RA): efficacy (ACR scores improvement); tolerability (RA): good tolerability; bone erosion (murine model of RA): significantly reduced; clinical scores (murine model of RA): significant improvement of clinical scores; serum cytokine concentrations (murine model of RA): significantly reduced serum cytokine concentrations
3 to 50	COc1ccc(C(N)=O)cc1-c1cc2nccc(-c3cnc(F)cc3C)c2o1 [Compound A54, 3-[7-(6-fluoro-4-methyl-pyridin-3-yl)-furo[3,2-b]pyridin-2-yl]-4-methoxybenzamide]	
0.3 to 3	CCc1ccc(OC)c(-c2cc3nccc(-c4cccc(C(=O)N[C@@H]5CCCC[C@@H]5N)c4)c3o2)c1 [Compound A43, N-((1R,2S)-2-amino-cyclohexyl)-3-[2-(5-ethyl-2-methoxy-phenyl)-furo[3,2-b]pyridin-7-yl]-benzamide]	
0.1 to 0.3	COc1cc(-c2cc3nccc(-c4cnc[nH]4)c3o2)cc(OC)c1OC [Compound A91, 7-(3H-imidazol-4-yl)-2-(3,4,5-trimethoxy-phenyl)-furo[3,2-b]pyridine]	
< 0.1	COc1ccc(C(N)=O)cc1-c1cc2nccc(-c3cc[nH]n3)c2o1 [Compound A72, 4-methoxy-3-[7-(1H-pyrazol-3-yl)-furo[3,2-b]pyridin-2-yl]-benzamide]	
0.1 to 0.3	COc1ccc(C(C)O)cc1-c1ccnc2cc(-c3cc(OC)c(OC)c(OC)c3)oc12 (stereo not shown) [Compound A21, 1-{4-methoxy-3-[2-(3,4,5-trimethoxy-phenyl)-furo[3,2-b]pyridin-7-yl]-phenyl}-ethanol]	
3 to 50	COc1cc(-c2cc3nccc(-c4cccc(C(=O)N[C@@H]5COC[C@@H]5N)c4)c3o2)cc(OC)c1OC [Compound A67, N-((3S,4R)-4-amino-tetrahydro-furan-3-yl)-3-[2-(3,4,5-trimethoxy-phenyl)furo[3,2-b]pyridin-7-yl]-benzamide]	
0.3 to 3	COc1cc(-c2cc3nccc(-c4cccc(C(=O)N[C@H]5CCCC[C@H]5O)c4)c3o2)cc(OC)c1OC [Compound A11, N-((1S,2R)-2-hydroxy-cyclohexyl)-3-[2-(3,4,5-trimethoxy-phenyl)-furo[3,2-b]pyridin-7-yl]-benzamide]	
3 to 50	CCc1ccc(OC)c(-c2cc3nccc(-c4cc(CC)ccc4OC)c3o2)c1 [Compound A30, 2,7-bis-(5-ethyl-2-methoxy-phenyl)-furo[3,2-b]pyridine]	
0.3 to 3	COc1cc(-c2cc3nccc(-c4ccc5ncn(CCN)c5c4)c3o2)cc(OC)c1OC [Compound A8, 2-{6-[2-(3,4,5-trimethoxy-phenyl)-furo[3,2-b]pyridin-7-yl]-benzoimidazol-1-yl}-ethylamine]	
< 0.1	COc1ccc(-c2ncon2)cc1-c1cc2nccc(-c3cc[nH]n3)c2o1 [Compound A92, 2-(2-methoxy-5-[1,2,4]oxadiazol-3-yl-phenyl)-7-(1H-pyrazol-3-yl)-furo[3,2-b]pyridine]	
3 to 50	COc1cc(-c2cc3nccc(-c4cccc(C(=O)N[C@@H]5CCCC[C@H]5O)c4)c3o2)cc(OC)c1OC [Compound A19, N-((1R,2R)-2-hydroxy-cyclohexyl)-3-[2-(3,4,5-trimethoxy-phenyl)-furo[3,2-b]pyridin-7-yl]-benzamide]	
